Measurements published in patent US6391882B1, “4,5,6 and 7-indole and indoline derivatitives, their preparation and use” (H. Lundbeck A/S, priority 1998, dated 2002).
pIC50: −log10 of the molar value. Read-outs that look alike come from different tables or passages of the source.

Assays:
[1] = biological target: T1, cloned human 5-HT1A receptors (Homo sapiens, UniProt P08908); assay: Inhibition of 3H-5-CT binding to human 5-HT1A receptors
T1 construct: expressed in transfected cells; host or cells: HeLa cells (HA7)
T1 sequence (P08908 1-422): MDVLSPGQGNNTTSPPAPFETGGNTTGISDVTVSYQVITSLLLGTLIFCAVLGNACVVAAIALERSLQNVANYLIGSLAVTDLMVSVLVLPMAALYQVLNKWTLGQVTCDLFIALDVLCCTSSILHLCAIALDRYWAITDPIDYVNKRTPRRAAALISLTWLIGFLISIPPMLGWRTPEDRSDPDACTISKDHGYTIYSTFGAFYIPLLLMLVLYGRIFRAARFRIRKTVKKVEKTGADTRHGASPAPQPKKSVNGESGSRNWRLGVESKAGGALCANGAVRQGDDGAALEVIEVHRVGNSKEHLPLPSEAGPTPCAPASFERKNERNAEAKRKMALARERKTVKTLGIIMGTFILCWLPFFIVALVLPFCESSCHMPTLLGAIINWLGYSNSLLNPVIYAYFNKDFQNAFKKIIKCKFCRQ
Procedure: The affinity of the compounds of the invention to 5-HT1A receptors was determined by measuring the inhibition of binding of a radioactive ligand at 5-HT1A receptors as described in the following test:
Inhibition of ^3H-5-CT Binding to Human 5HT1A Receptors
By this method the inhibition by drugs of the binding of the 5-HT1A agonist ^3H-5-carboxamido tryptamine (^3H-5-CT) to cloned human 5-HT1A receptors stably expressed in transfected HeLa cells (HA7) (Fargin, A. et al, J. Biol. Chem., 1989, 264, 14848) is determined in vitro. The assay was performed as a modification of the method described by Harrington, M. A. et al, J. Pharmacol. Exp. Ther., 1994, 268, 1098. Human 5-HT1A receptors (40 μg of cell homogenate) were incubated for 15 minutes at 37° C. in 50 mM Tris buffer at pH 7.7 in the presence of ^3H-5-CT. Non-specific binding was determined by including 10 μM of metergoline. The reaction was terminated by rapid filtration through Unifilter GF/B filters on a Tomtec Cell Harvester. Filters were counted in a Packard Top Counter.

[2] = biological target: T2, Serotonin reuptake (whole rat brain synaptosomes) (Rattus norvegicus, UniProt P31652); assay: Inhibition of 3H-5-HT uptake into rat brain synaptosomes; type: biochemical
T2 construct: from tissue; host or cells: whole rat brain synaptosomes
Procedure: Inhibition of ^3H-5-HT Uptake Into Rat Brain Synaptosomes
Using this method the ability of drugs to inhibit the accumulation of ^3H-5-HT into whole rat brain synaptosomes is determined in vitro.

[3] = cloned human 5-HT1A receptors in transfected HeLa cells (HA7), 15 minutes at 37° C., pH 7.7
[4] = 3H-5-HT accumulation into whole rat brain synaptosomes, in vitro, read-out: Inhibition of Serotonin reuptake IC50

T2 sequence (P31652 whole entry): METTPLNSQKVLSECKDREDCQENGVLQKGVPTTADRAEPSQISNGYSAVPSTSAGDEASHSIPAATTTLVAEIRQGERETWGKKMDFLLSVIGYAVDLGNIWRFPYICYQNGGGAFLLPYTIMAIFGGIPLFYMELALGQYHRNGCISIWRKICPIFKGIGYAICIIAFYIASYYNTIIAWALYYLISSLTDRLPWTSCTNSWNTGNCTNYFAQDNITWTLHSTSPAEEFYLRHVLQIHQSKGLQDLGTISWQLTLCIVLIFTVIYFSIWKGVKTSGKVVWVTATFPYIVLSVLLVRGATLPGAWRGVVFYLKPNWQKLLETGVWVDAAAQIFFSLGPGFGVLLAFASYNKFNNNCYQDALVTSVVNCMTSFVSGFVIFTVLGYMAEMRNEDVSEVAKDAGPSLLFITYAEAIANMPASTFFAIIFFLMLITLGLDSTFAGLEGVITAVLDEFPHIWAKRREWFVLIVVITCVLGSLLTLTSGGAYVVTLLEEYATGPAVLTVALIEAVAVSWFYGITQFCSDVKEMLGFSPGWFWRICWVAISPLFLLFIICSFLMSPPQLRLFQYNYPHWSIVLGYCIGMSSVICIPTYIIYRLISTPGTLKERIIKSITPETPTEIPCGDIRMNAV

## c1cc(N2CCN(CCc3coc4ccccc34)CC2)c2cc[nH]c2c1 [Compound 1a, 1-(2-(3-Benzofuranyl)ethyl)-4-(1H-indol-4-yl)piperazine]
[1]; [3]
  pIC50: 8.00
[2]
  pIC50: 7.51

## c1cc(N2CCN(Cc3coc4ccccc34)CC2)c2cc[nH]c2c1 [Compound 1b, 1-(3-Benzofuranylmethyl)-4-(1H-indol-4-yl)piperazine]
[1]; [3]
  pIC50: 6.68
[2]; [4]
  pIC50: 6.54

## Fc1ccc2occ(CCN3CCN(c4cccc5[nH]ccc45)CC3)c2c1 [Compound 1c, 1-(2-(5-Fluoro-3-benzofuranyl)ethyl)-4-(1H-indol-4-yl)piperazine]
[1]; [3]
  pIC50: 7.92
[2]
  pIC50: 7.24

## Fc1ccc2occ(CCCCN3CCN(c4cccc5[nH]ccc45)CC3)c2c1 [Compound 1d, 1-(4-(5-Fluoro-3-benzofuranyl)-1-butyl)-4-(1H-indol-4-yl)piperazine]
[1]; [3]
  pIC50: 8.60
[2]; [4]
  pIC50: 7.51

## c1ccc2c(CCN3CCN(c4cccc5[nH]ccc45)CC3)c[nH]c2c1 [Compound 1e, 1-(2-(1H-indol-3-yl)ethyl)-4-(1H-indol-4-yl)piperazine]
[1]; [3]
  pIC50: 8.16
[2]
  pIC50: 8.36

## c1ccc2c(CCCN3CCN(c4cccc5[nH]ccc45)CC3)c[nH]c2c1 [Compound 1f, 1-(3-(1H-indol-3-yl)-1-propyl)-4-(1H-indol-4-yl)piperazine]
[1]; [3]
  pIC50: 8.01
[2]; [4]
  pIC50: 8.09

## c1ccc2c(CCCCN3CCN(c4cccc5[nH]ccc45)CC3)c[nH]c2c1 [Compound 1g, 1-(4-(1H-indol-3-yl)-1-butyl)-4-(1H-indol-4yl)piperazine]
[1]; [3]
  pIC50: 7.89
[2]; [4]
  pIC50: 7.92

## Fc1ccc2occ(CCCN3CCN(c4cccc5[nH]ccc45)CC3)c2c1 [Compound 1h, 1-(3-(5-Fluoro-3-benzofuranyl)-1-propyl)-4-(1H-indol-4-yl)piperazine]
[1]; [3]
  pIC50: 7.96
[2]; [4]
  pIC50: 8.17

## Cc1oc2c(F)c(F)c(F)c(F)c2c1CCN1CCN(c2cccc3[nH]ccc23)CC1 [Compound 1i, 1-(2-(2-Methyl-4,5,6,7-tetrafluoro-3-benzofuranyl)ethyl)-4-(1H-indol-4-yl)piperaziine]
[1]; [3]
  pIC50: 8.47

## c1cc(N2CCN(CCc3n[nH]c4ccccc34)CC2)c2cc[nH]c2c1 [Compound 1j, 1-(2-(3-Indazolyl)ethyl)-4-(1H-indol-4-yl)piperazine]
[1]
  pIC50: 7.66
[2]; [4]
  pIC50: 6.44

## Clc1ccc2c(CCN3CCN(c4cccc5[nH]ccc45)CC3)n[nH]c2c1 [Compound 1k, 1-(2-(6-Chloro-3-indazolyl)ethyl)-4-(1H-indol-4-yl)piperazine]
[1]
  pIC50: 7.66
[2]; [4]
  pIC50: 6.82

## N#Cc1cccc2c(CCN3CCN(c4cccc5[nH]ccc45)CC3)c[nH]c12 [Compound 1l, 1-(2-(7-Cyano-1H-indol-3-yl)ethyl)-4-(1H-indol-4-yl)piperazine]
[1]; [3]
  pIC50: 8.60

## Clc1ccc2c(CCN3CCN(c4cccc5[nH]ccc45)CC3)c[nH]c2c1 [Compound 2a, 1-(2-(6-Chloro-1H-indol-3-yl)ethyl)-4-(1H-indol-4-yl)piperazine]
[1]; [3]
  pIC50: 8.47
[2]
  pIC50: 7.68

## Clc1cccc2[nH]cc(CCN3CCN(c4cccc5[nH]ccc45)CC3)c12 [Compound 2b, 1-(2-(4-Chloro-1H-indol-3-yl)ethyl)-4-(1H-indol-4-yl)piperazine]
[1]; [3]
  pIC50: 7.96
[2]
  pIC50: 8.16

## Fc1ccc2[nH]cc(CCN3CCN(c4cccc5[nH]ccc45)CC3)c2c1 [Compound 2c, 1-(2-(5-Fluoro-1H-indol-3-yl)ethyl)-4-(1H-indol-4-yl)piperazine]
[1]; [3]
  pIC50: 7.57
[2]
  pIC50: 8.64

## Clc1ccc2c(CCN3CC=C(c4cccc5[nH]ccc45)CC3)c[nH]c2c1 [Compound 2g, 1-(2-(6-Chloro-1H-indol-3-yl)ethyl)-4-(1H-indol-4-yl)-1,2,3,6-tetrahydropyridine]
[1]; [3]
  pIC50: 8.55
[2]
  pIC50: 7.66

## Fc1ccc2[nH]cc(CCN3CC=C(c4cccc5[nH]ccc45)CC3)c2c1 [Compound 2h, 1-(2-(5-Fluoro-1H-indol-3-yl)ethyl)-4-(1H-indol-4-yl)-1,2,3,6-tetrahydropyridine]
[1]; [3]
  pIC50: 7.96
[2]
  pIC50: 8.60

## Brc1cccc2c(CCN3CCN(c4cccc5[nH]ccc45)CC3)c[nH]c12 [Compound 2i, 1-(2-(7-Bromo-1H-indol-3-yl)ethyl)-4-(1H-indol-4-yl)piperazine]
[1]; [3]
  pIC50: 8.27
[2]
  pIC50: 8.23

## Brc1ccc2[nH]cc(CCN3CCN(c4ccc5[nH]ccc5c4)CC3)c2c1 [Compound 2t, 1-(2-(5-Bromo-1H-indol-3-yl)ethyl)-4-(1H-indol-5-yl)piperazine]
[1]; [3]
  pIC50: 6.64
[2]
  pIC50: 7.41

## Clc1ccc2[nH]cc(CCN3CCN(c4ccc5[nH]ccc5c4)CC3)c2c1 [Compound 2u, 1-(2-(5-Chloro-1H-indol-3-yl)ethyl)-4-(1H-indol-5-yl)piperazine]
[1]; [3]
  pIC50: 6.51
[2]
  pIC50: 7.70

## OCc1cc(N2CCN(CCc3c[nH]c4ccc(F)cc34)CC2)c2cc[nH]c2c1 [Compound 3a, 1-(2-(5-Fluoro-1H-indol-3-yl)ethyl)-4-(6-hydroxymethyl-1H-indol-4-yl)piperazine]
[1]; [3]
  pIC50: 6.04
[2]
  pIC50: 7.77

## Fc1ccc2c(CCCN3CCN(c4cccc5[nH]ccc45)CC3)noc2c1 [Compound 4a, 1-(3-(6-Fluoro-1,2-benzisoxazol-3-yl)-1-propyl)-4-(1H-indol-4-yl)piperazine]
[1]; [3]
  pIC50: 8.01
[2]; [4]
  pIC50: 6.44

## COC(=O)c1cc(N2CCN(CCc3c[nH]c4ccccc34)CC2)c2cc[nH]c2c1 [Compound 4f, 1-(2-(1H-indol-3-yl)ethyl)-4-(6-methoxycarbonyl-1H-indol-4-yl)piperazine]
[1]; [3]
  pIC50: 5.92
[2]
  pIC50: 7.85

## COC(=O)c1cc(N2CCN(CCc3c[nH]c4cc(Cl)ccc34)CC2)c2cc[nH]c2c1 [Compound 4g, 1-(2-(6-Chloro-1H-indol-3-yl)ethyl)-4-(6-methoxycarbonyl-1-H-indol-4-yl)piperazine]
[1]; [3]
  pIC50: 6.46
[2]
  pIC50: 7.64

## COC(=O)c1cc(N2CCN(CCc3coc4ccc(F)cc34)CC2)c2cc[nH]c2c1 [Compound 4h, 1-(2-(5-Fluoro-3-benzofuranyl)ethyl)-4-(6-methoxycarbonyl-1H-indol-4-yl)piperazine]
[1]; [3]
  pIC50: 5.51
[2]; [4]
  pIC50: 7.15

## Fc1ccc2occ(CN3CCN(c4cccc5[nH]ccc45)CC3)c2c1 [Compound 4l, 1-(5-Fluoro-3-benzofuranylmethyl)-4-(1H-indol-4-4-yl)piperazine]
[1]; [3]
  pIC50: 6.48
[2]; [4]
  pIC50: 6.02

## N#Cc1c[nH]c2cccc(N3CCN(CCc4c[nH]c5ccccc45)CC3)c12 [Compound 4m, 1-(3-Cyano-1H-indol-4-yl)-4-(2-(1H-indol-3-yl)ethyl)piperazine]
[1]; [3]
  pIC50: 8.49
[2]
  pIC50: 8.52

## N#Cc1c[nH]c2cccc(N3CCN(CCc4coc5ccc(F)cc45)CC3)c12 [Compound 4n, 1-(3-Cyano-1H-indol-4-yl)-4-(2-(5-fluoro-3-benzofuranyl)ethyl)piperazine]
[1]; [3]
  pIC50: 8.24
[2]; [4]
  pIC50: 7.19

## N#Cc1c[nH]c2cccc(N3CCN(CCc4c[nH]c5cc(Cl)ccc45)CC3)c12 [Compound 4o, 1-(2-(6-Chloro-1H-indol-3-yl)ethyl)-4-(3-cyano-1H-indol-4-yl)piperazine]
[1]; [3]
  pIC50: 8.54
[2]
  pIC50: 7.72

## N#Cc1c[nH]c2cccc(N3CCN(CCc4coc5ccccc45)CC3)c12 [Compound 4p, 1-(2-(3-Benzofuranyl)ethyl)-4-(3-cyano-1H-indol-4-yl)piperazine]
[1]; [3]
  pIC50: 8.37
[2]; [4]
  pIC50: 7.66

## Cc1ccc2occ(CCN3CCN(c4cccc5[nH]ccc45)CC3)c2c1 [Compound 4q, 1-(1H-Indol-4-yl)-4-(2-(5-methyl-3-benzofuranyl)ethyl)piperazine]
[1]; [3]
  pIC50: 7.68
[2]
  pIC50: 7.47

## Cc1cccc2occ(CCN3CCN(c4cccc5[nH]ccc45)CC3)c12 [Compound 4r, 1-(1H-Indol-4-yl)-4-(2-(4-methyl-3-benzofuranyl)ethyl)piperazine]
[1]; [3]
  pIC50: 8.00
[2]
  pIC50: 7.92

## Fc1ccc2occ(CCCN3CC=C(c4cccc5[nH]ccc45)CC3)c2c1 [Compound 4s, 1-(3-(5-Fluoro-3-benzofuranyl)-1-propyl)-4-(1H-indol-4-yl)-1,2,3,6-tetrahydropyridine]
[1]; [3]
  pIC50: 7.80
[2]
  pIC50: 7.62

## N#Cc1c[nH]c2cccc(N3CCN(CCc4c[nH]c5cccc(Cl)c45)CC3)c12 [Compound 4x, 1-(2-(4-Chloro-1H-indol-3-yl)ethyl)-4-(3-cyano-1H-indol-4-yl)piperazine]
[1]; [3]
  pIC50: 8.27
